In publication PMC5871770, “Tlr1612 is the major repressor of cell aggregation in the light-color-dependent c-di-GMP signaling network of Thermosynechococcus vulcanus” (Scientific Reports, 2018):

Tests used:
[1] = biological target: T1, full-length YcgR of Escherichia coli (Escherichia coli, UniProt P76010); test: FRET biosensor titration (F527/F475); format: binding; settings: read-out: affinity
T1 construct: full length between mCyPet and mYPet (FRET reporters); N-terminal His tag, pET28V, E. coli expressed
T1 sequence (P76010 1-244): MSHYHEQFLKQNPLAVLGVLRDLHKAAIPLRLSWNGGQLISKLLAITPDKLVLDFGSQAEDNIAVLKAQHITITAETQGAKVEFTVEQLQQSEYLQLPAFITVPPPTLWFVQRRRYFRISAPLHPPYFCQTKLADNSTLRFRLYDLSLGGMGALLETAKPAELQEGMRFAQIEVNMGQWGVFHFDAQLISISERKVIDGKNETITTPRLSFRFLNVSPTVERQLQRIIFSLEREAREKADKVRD

[2] = biological target: T2, Tll0007-PilZ (FRET biosensor mCyPet-Tll0007 PilZ-mYPet) (Thermostichus vulcanus, UniProt E5RST0, R605A); test: FRET biosensor titration (F527/F475); format: binding; settings: 31 °C, pH 7.5, 100 mM NaCl, 10% glycerol, 50 nM protein; c-di-GMP 10 nM to 1 mM; PilZ RXXXR motif mutant
T2 construct: gene Tvtll0007; N-terminal His tag, pET28V, E. coli expressed

[3] = biological target: T3, SesA; test: EnzChek pyrophosphate assay, initial rate of diguanylate cyclase; format: biochemical; settings: 31 °C, pH 7.5, 20 mM MgCl2, 100 µM GTP, 0.2 µM protein, blue-light pre-irradiated; allosteric product inhibition at I-site (RXXD)
T3 construct: PCC 6803 from pTCH2031V; pre-irradiated with blue light

[4] = biological target: T4, Tll0007-PilZ (FRET biosensor mCyPet-Tll0007 PilZ-mYPet) (Thermostichus vulcanus, UniProt E5RST0); test: FRET biosensor titration (F527/F475); format: binding; settings: 31 °C, pH 7.5, 100 mM NaCl, 10% glycerol, 50 nM protein; PilZ domain
T4 construct: gene Tvtll0007; N-terminal His tag, pET28V, E. coli expressed
T4 sequence (E5RST0 entry or part of it): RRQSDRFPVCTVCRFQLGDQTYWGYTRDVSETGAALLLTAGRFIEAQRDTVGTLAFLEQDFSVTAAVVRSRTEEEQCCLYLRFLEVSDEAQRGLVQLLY

T2 sequence (E5RST0 entry or part of it R605A): as the sequence (E5RST0 entry or part of it) above, with R6A counted along it

For `Nc1nc2c(ncn2[C@@H]2O[C@@H]3CO[P@](=O)(O)O[C@H]4[C@@H](O)[C@H](n5cnc6c(=O)[nH]c(N)nc65)O[C@@H]4CO[P@](=O)(O)O[C@H]3[C@H]2O)c(=O)[nH]1` [c-di-GMP, bis-(3′-5′)-cyclic diguanylic acid], which Kd [1] is on record?
The Kd was 0.42 ± 0.08 µM.

And the “no FRET increase (no binding detected)” value [2]?
Its value is “R605A lacked the corresponding increase in FRET efficiency upon c-di-GMP addition”.

And the IC50 [3]?
The IC50 was 1.07 ± 0.13 µM.

What about the Kd [4] of the same compound?
Its Kd is 63.9 ± 5.1 µM.
